Measurements reported in patent publication US12697359B2, “Composition for preventing hair loss and promoting hair growth comprising postbiotic components from heat-treat Limosilactobacillus fermentum LM1020” (priority 2023, dated 2026).

System: dermal papilla cells
Assay: Dermal papilla cell growth promotion effect of functional raw materials and heat-treated LM1020, alone or combined (Colby prediction)
Type: cell-based, human
Conditions: for effect on growth of dermal papilla cells / Effect of promoting growth of dermal papilla cell (%) Measured value: medium lacking growth factor; for Effect of promoting growth of dermal papilla cell (%) Measured value: raw material alone or LSD mixture, without LM1020
Description: The effect on the growth of dermal papilla cells was confirmed when the heat-treated Limosilactobacillus fermentum LM1020 was used together with L-menthol, salicylic acid, and dexpanthenol, which are active ingredients frequently used for functional cosmetics that help relieve hair loss symptoms. After the dermal papilla cells were seeded in a 96-well plate and cultured for 24 hours, the medium in the well was replaced with a medium lacking growth factor and further cultured for 24 hours. Then, the heat-treated Limosilactobacillus fermentum LM1020, L-menthol, salicylic acid, and dexpanthenol were used alone or mixed in a ratio of […] and used for treatment of dermal papilla cells prepared by the above-described method to determine the effect on the growth of the dermal papilla cells.
A growth rate of dermal papilla cells when cultured alone and growth rates of dermal papilla cells when treated alone or in a combination of L-menthol, salicylic acid, dexpanthenol, and the heat-treated Limosilactobacillus fermentum LM1020 were calculated. Then, the effects of the respective treatment materials on the promotion of growth of dermal papilla cells were calculated using the formula below and compared with each other. All the tests were repeated three times, and the average of each result was calculated and compared. • Dermal papilla cell growth promotion effect (%)=(B−A)÷A×100 • A=Growth rate of dermal papilla cells in non-treatment group • B=Growth rate of dermal papilla cells when treated with L-menthol, salicylic acid, dexpanthenol, and heat-treated Limosilactobacillus fermentum LM1020
Meanwhile, it was confirmed that when the heat-treated Limosilactobacillus fermentum LM1020 is used for treatment together with compounds of L-menthol, salicylic acid, and dexpanthenol, it is possible to overcome the effect of the compounds on the inhibition of growth of dermal papilla cells and promote the growth of dermal papilla cells. In order to thoroughly understand their synergistic effect, the effect to be predicted was calculated using the Colby formula, and a prediction value was compared with an experimental value (measurement value) to verify whether a synergistic effect exceeding the prediction value can be achieved.

Structure (SMILES)	effect on growth of dermal papilla cells	Effect of promoting growth of dermal papilla cell (%) Measured value [%]	effect on promotion of growth of dermal papilla cells compared with heat-treated LM1020 (dexpanthenol alone vs LM1020 alone)
CC(C)[C@@H]1CC[C@@H](C)C[C@H]1O [L-menthol]	inhibit the growth of dermal papilla cells	−12.05 ± 3.31	–
CC(C)(CO)[C@@H](O)C(=O)NCCCO [dexpanthenol]	able to promote the growth of dermal papilla cells	2.35 ± 1.61	lower than that of the heat-treated Limosilactobacillus fermentum LM1020 at all concentrations
O=C(O)c1ccccc1O [salicylic acid]	inhibit the growth of dermal papilla cells	−0.39 ± 0.80	–
